Paper PMC8087159 (Bioconjugate chemistry, 2021)
Entries after “also recorded” stand apart in the source; their conditions may differ. Where two headings read alike, the source gives them in different places.

Experiments:
[1] = cited from earlier work
[2] = 3.5 μmol per mouse oral gavage; for original drug in the eye / liver accumulation of N-retinylamides: 2 and 16 h; for N-retinylamides in the eye: 16 h
RPE65 [3] = molecular target: RPE65 (Bos taurus, UniProt Q28175); test: RPE microsome retinoid isomerase assay; format: biochemical, Bovine; settings: RPE microsomes, 0.5–10 μM compound, 10 μM all-trans-retinol, 1 h
Chain of RPE65 (Bos taurus, UniProt Q28175) (Q28175 whole entry): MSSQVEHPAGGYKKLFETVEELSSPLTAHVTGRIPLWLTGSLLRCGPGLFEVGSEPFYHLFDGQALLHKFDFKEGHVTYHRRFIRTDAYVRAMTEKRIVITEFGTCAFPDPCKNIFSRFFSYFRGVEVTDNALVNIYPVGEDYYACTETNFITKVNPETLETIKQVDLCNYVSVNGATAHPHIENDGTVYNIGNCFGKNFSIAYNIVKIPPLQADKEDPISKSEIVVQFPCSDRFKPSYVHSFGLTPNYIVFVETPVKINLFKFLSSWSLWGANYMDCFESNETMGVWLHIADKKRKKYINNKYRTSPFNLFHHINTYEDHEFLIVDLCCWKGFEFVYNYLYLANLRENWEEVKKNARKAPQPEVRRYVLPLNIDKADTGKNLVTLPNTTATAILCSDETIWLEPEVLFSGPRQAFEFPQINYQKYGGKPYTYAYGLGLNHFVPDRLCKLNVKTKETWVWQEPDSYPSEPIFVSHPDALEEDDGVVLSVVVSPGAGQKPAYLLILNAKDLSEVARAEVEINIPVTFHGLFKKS

Caco-2 cell monolayer = Caco-2 cell monolayer transport; format: in vitro ADME, human; settings: 500 μM in PBS pH 6 on apical side, 37 °C, within 24 h; compared with Ret-NH2
ARPE19 cells = test: ARPE19 cell uptake; format: in vitro ADME, human; settings: 10 μM, 16 h; compared with Ret-NH2
RPE65 [4] = molecular target: T1, RPE65 (Homo sapiens, UniProt Q16518); format: cell-based; settings: NIH3T3 cells, 4.5 μM drug, 10 μM all-trans-retinol, 16 h
T1 sequence (Q16518 1-533): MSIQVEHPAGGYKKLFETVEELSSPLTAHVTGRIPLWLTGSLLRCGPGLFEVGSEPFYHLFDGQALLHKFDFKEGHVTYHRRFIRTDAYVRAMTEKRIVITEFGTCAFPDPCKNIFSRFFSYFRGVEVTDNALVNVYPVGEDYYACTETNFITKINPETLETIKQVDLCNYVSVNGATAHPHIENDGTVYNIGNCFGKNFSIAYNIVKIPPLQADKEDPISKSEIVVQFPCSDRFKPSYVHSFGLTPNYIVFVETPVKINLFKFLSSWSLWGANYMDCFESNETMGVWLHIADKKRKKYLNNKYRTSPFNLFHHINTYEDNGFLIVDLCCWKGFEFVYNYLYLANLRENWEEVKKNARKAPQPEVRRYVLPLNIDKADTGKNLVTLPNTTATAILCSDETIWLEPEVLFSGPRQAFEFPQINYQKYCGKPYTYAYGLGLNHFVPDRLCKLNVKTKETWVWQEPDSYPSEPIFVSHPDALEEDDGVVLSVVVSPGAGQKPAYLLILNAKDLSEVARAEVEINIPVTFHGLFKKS

Storage stability = format: physicochemical
RPE65 [5] = molecular target: T2, RPE65 (Mus musculus, UniProt Q91ZQ5); test: In vivo RPE65 inhibition; settings: 1.75 μmol/mouse oral gavage 16 h before bleach 10 min at 7000 lx; 24 h in the dark
T2 sequence (Q91ZQ5 2-533): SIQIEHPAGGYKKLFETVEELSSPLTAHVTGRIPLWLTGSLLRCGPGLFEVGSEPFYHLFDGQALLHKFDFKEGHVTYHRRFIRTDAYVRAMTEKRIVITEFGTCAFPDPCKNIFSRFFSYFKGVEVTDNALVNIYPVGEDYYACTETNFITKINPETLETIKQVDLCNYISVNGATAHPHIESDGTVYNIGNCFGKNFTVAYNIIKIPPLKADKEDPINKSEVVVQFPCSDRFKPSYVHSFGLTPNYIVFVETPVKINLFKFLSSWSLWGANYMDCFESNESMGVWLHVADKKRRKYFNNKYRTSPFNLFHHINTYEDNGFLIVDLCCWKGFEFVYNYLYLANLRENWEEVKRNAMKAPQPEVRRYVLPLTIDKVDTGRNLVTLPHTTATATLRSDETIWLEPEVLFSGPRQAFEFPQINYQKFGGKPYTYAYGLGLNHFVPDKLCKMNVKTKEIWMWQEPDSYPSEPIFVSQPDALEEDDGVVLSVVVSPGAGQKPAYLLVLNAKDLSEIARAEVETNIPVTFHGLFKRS

[6] = tested on: light-induced retinal degeneration in Abca4^−/−Rdh8^−/− mice; test: Retinal histology; format: in vivo; settings: drug before intense light exposure; 7 days after light exposure
[7] = tested on: retinal function of C57BL/6J WT mice; test: ERG scotopic a-waves in wild-type mice after drug treatment; format: in vivo; settings: 1.75 μmol per mouse gastric gavage 16 h prior to ERG
[8] = mouse, in vivo, po
[9] = tested on: light-induced retinal degeneration in Abca4^−/−Rdh8^−/− mice; test: ERG scotopic a-waves after light-induced retinal degeneration; settings: 1.9 μmol/mouse gastric gavage 16 h prior to light illumination; measured 7 days after drug administration and illumination

## Nc1nc2c(ncn2COCCO)c(=O)[nH]1 [acyclovir]
[1]; in vivo, po
  oral bioavailability (Fo): ~ 16%

## CC1=C(/C=C/C(C)=C/C=C/C(C)=C/CNC(=O)[C@@H](N)Cc2ccccc2)C(C)(C)CCC1 [RF]
[2]
  original drug in the eye: detected only at 2 h
  N-retinylamides in the eye: comparable to that of Ret-NH2
RPE65 [3]
  inhibition of RPE65 activity (11-cis-retinol production): minor inhibitory effects
Caco-2 cell monolayer
  transport through the Caco-2 monolayer: significantly higher transport
ARPE19 cells
  uptake by ARPE19 cells: higher uptake

## CC1=C(/C=C/C(C)=C/C=C/C(C)=C/CNC(=O)[C@@H](N)CC(C)C)C(C)(C)CCC1 [RL]
[2]
  original drug in the eye: detected only at 2 h
  N-retinylamides in the eye: comparable to that of Ret-NH2

## CC1=C(/C=C/C(C)=C/C=C/C(C)=C/CN)C(C)(C)CCC1 [Ret-NH2, Retinylamine, reference compound]
RPE65 [4]
  11-cis-retinol production: virtually ablated 11-cis-retinol production
Storage stability; desiccator under vacuum at room temperature, within 1 week
  decomposed on storage: 95%
[2]
  original drug in the eye: No Ret-NH2 was detected at 2 and 16 h in the eye
[2]; 2 h
  N-retinylamide concentration in liver: much higher liver concentrations
RPE65 [3]
  inhibition of RPE65 activity (11-cis-retinol production): concentration-dependent inhibition
RPE65 [5]
  regeneration of 11-cis-retinal in the eye: much lower concentration of 11-cis-retinal than the untreated controls

## CC1=C(/C=C/C(C)=C/C=C/C(C)=C/CNC(=O)CN)C(C)(C)CCC1 [RG]
[2]
  liver accumulation of N-retinylamides: lower liver accumulations of N-retinylamides than did RF and RL
  original drug in the eye: detected in the eyes at 2 and 16 h at relatively high concentrations
  N-retinylamides in the eye: comparable to that of Ret-NH2

## COc1ccc(OC)c(C(O)CN)c1 (stereo not drawn) [desglymidodrine]
[1]; desglymidodrine to midodrine
  oral bioavailability: 50%

## CC1=C(/C=C/C(C)=C/C=C/C(C)=C/CNC(=O)CNC(=O)[C@@H](N)C(C)C)C(C)(C)CCC1 [RVG, Ret-NH2-L-valylglycine amide]
RPE65 [4]
  11-cis-retinol production: easily detected
[6]
  retinal structure by histology (H&E): maintained an intact retinal structure
Storage stability; stored in a desiccator under vacuum at room temperature for 2 months
  degradation on storage: Less than 5%
[2]
  liver accumulation of N-retinylamides: lower liver accumulations of N-retinylamides than did RF and RL
  original drug in the eye: detected only at 16 h
  N-retinylamides in the eye: no detectable N-retinylamides
RPE65 [3]
  inhibition of RPE65 activity (11-cis-retinol production): did not affect significant inhibition; also recorded: no inhibitory effect
RPE65 [5]
  regeneration of 11-cis-retinal in the eye: greater regeneration of 11-cis-retinal
Caco-2 cell monolayer
  transport through the Caco-2 monolayer: significantly higher transport
[7]
  recovery of retinal function (ERG): rapid recovery of retinal function
ARPE19 cells
  uptake by ARPE19 cells: higher uptake

## CC1=C(/C=C/C(C)=C/C=C/C(C)=C/CNC(=O)[C@@H](N)C(C)C)C(C)(C)CCC1 [RV]
[8]
  N-retinylamides in the eye: no detectable N-retinylamides
  liver accumulation of N-retinylamides: lower liver accumulations of N-retinylamides than did RF and RL
  original drug in the eye: detected in the eyes at 2 and 16 h at relatively high concentrations

## Emixustat-L-Val-Gly amide [EVG]
[9]
  ERG activities (scotopic a-waves): only slight decrease of ERG activities
